# Laboratory results taken from publication PMC7684578, “Isopedopeptins A–H: Cationic Cyclic Lipodepsipeptides from Pedobacter cryoconitis UP508 Targeting WHO Top-Priority Carbapenem-Resistant Bacteria” (ACS Chemical Biology, 2020).
# Like-named read-outs stand apart in the source and are kept apart here. Starred links: 1 amine or outer side, 2 acyl side, 3 side chain; linkers in the order of their positions; H or OH if unused. Positions of bridges follow the written chain, without caps; N, C: chain ends. Non-standard residues stand in square brackets, D forms with d. Residues, ends and D or L forms follow the SMILES beside them. X5 = CC(C)CCCCCCC[C@H](CC(=O)[*:1])O[*:2]; X2 = CCCCCCC[C@H](CC(=O)[*:1])O[*:2]; Val(3-OH) = CC(C)(O)[C@H](N)C(=O)O; X1 = C/C=C(/N[*:1])C(=O)[*:2]; Dab = NCC[C@H](N)C(=O)O; Dap = NC[C@H](N)C(=O)O
# What was measured:
# A. baumannii = assay: MIC, extended panel, broth micro-dilution in MHII (EUCAST/CLSI); assay type: cell-based; settings: Acinetobacter baumannii
# Procedure: (§1) Plates were, subsequently, incubated at 37 °C in the dark, and viable colonies counted after 16 to 24 h.
# (§2) To estimate MIC values (concentration range between 0.05 and 50 µg/mL), solutions of the tested compounds (100, 10 and 1 and if needed 0.1 µg/mL in MeOH) were dispensed into wells of microtiter plate(s) and the solvent was evaporated in a fume-hood. Subsequently, suspensions of pathogen cells in the appropriate medium were dispensed to the wells of microtiter plates and the growth of pathogens were observed after 16 to 20 h of incubation at 37 °C in the dark. Positive controls were the respective pathogen cells suspended in untreated sterile media without addition of compounds(s) and negative controls were the media only. MIC values were defined as the lowest concentration of each compound with no visible growth of pathogen. All MIC tests were performed in triplicate and […]
# (§3) MIC determination for compound 2 against an extended panel of bacterial strains.
# (§4) Compound 2 was evaluated against a panel of Gram-negative bacteria (Hughes strain collection), including: A. baumannii ATCC 19606, wild-type; BM4454, multidrug-resistant clinical isolate; BM4652, efflux-defective derivative of BM4454; CH9622, colistin-resistant clinical isolate; E. coli ATCC 25922, wild-type; CH3130, efflux-defective ΔtolC mutant isogenic to ATCC 25922; D22, a drug-hypersensitive lpxC mutant of E. coli; CH3491, multidrug-resistant clinical isolate; CH9623 and CH9624, colistin-resistant clinical isolates carrying mcr-1; K. pneumoniae ATCC 13833, wild-type; […]
# (§5) clinical isolate; CH9625 and CH9626, colistin-resistant clinical isolates; P. aeruginosa PAO1, wild-type; PAO750, efflux-defective mutant isogenic to PAO1. The in vitro antimicrobial activity of each compound was determined by measuring the MIC value using the broth micro-dilution technique in cation-adjusted Mueller-Hinton II broth (Becton-Dickinson, 212322) according to EUCAST and CLSI guidelines. Each compound prepared in MHII medium was dispensed into a 96-well round-bottomed microtiter plate to give final assay concentrations from 64 µg/mL down to 0.25 µg/mL (two-fold dilution series in 10 wells, plus two control wells: medium control with no bacteria or compound, and growth control with bacteria added but no compound). Bacteria were prepared from fresh colonies grown on non-selective MHII agar, then suspended in saline to 0.5 McFarland (≅ 1.5 × […]
# (§6) 10^8 CFU/mL) with turbidity assessed using a Sensititre Nephelometer (Trek Diagnostics Systems Ltd, UK). 50 µL of this bacterial suspension was transferred to 10 mL of MHII broth to give a final bacterial concentration ≅ 5 × 10^5 CFU/mL (acceptable range 3 – 7 × 10^5 CFU/mL). 50 µL of bacterial suspension was pipetted into each well (except the medium control well, where 50 µL MHII was pipetted). Final volume in each well was 100 µL. Plates were covered and incubated without shaking for 18-20 h at 35 °C ± 2 °C. MIC was read visually, as complete inhibition of growth by the unaided eye, using the medium-only wells as the control. Each compound was assayed at least in duplicate.
# (§7) Additionally, the MIC for compound 2 against clinical carbapenem-resistant strains of A. baumannii […]
# (§8) determined at the Public Health Agency of Sweden (according to EUCAST recommendations).
# (§9) In vitro Cytotoxicity Determination. In vitro cytotoxicity was determined by a fluorometric microculture cytotoxicity assay,7 based on hydrolysis of fluorescein diacetate to fluorescein by cells with intact plasma membranes. In short, HepG2 cells (hepatocellular carcinoma cells, ATCC), in Eagle's Minimum Essential Medium (ATCC) supplemented with 10 % fetal bovine serum, penicillin/streptomycin (100 U/100 µg/mL) and 2 mM L-glutamine, were seeded in 384-well assay plates at a density of 1000 cells/well. The cells were incubated over night at 37°C and compounds in 10 mM DMSO were added, to obtain final concentrations 64 µM – 0.25 µM in two-fold dilutions.
# (§10) After incubation for 72 h at 37°C, the cells were pelleted and washed. Fluorescein diacetate was […]
# E. coli = assay: as above; assay type: cell-based; settings: Escherichia coli
# Procedure: as §1, §2, §3, §4, §5, §6, §7, §8, §9, §10
# K. pneumoniae = assay: as above; assay type: cell-based; settings: Klebsiella pneumoniae
# Procedure: as §1, §2, §3, §4, §5, §6, §7, §8, §9, §10
# P. aeruginosa [1] = assay: as above; assay type: cell-based; settings: Pseudomonas aeruginosa
# Procedure: as §1, §2, §3, §4, §5, §6, §7, §8, §9, §10
# P. aeruginosa [2] = assay: MIC determined at the Public Health Agency of Sweden (EUCAST); assay type: cell-based, Pseudomonas aeruginosa; settings: for MIC: Pseudomonas aeruginosa, Public Health Agency of Sweden
# Procedure: as §6, §7, §8, §9
# After incubation for 72 h at 37°C, the cells were pelleted and washed. Fluorescein diacetate was added (1 µL, 0.5 mg/mL) and the fluorescence [485 nm(exc)/530 nm(em.)] was measured after 50 min at 37°C. Bortezomib (2 µM) was used as positive control and dose response testing of doxorubicin (top concentration 2 µM) was performed repeatedly to follow assay performance over time. Cytotoxicity was assessed after 72 h with cell survival presented as survival index (SI, %) defined as fluorescence in test wells in percent of control cultures with blank values subtracted.
# Criteria for a successful assay include a signal-to-noise ratio in control cultures >10, CV <30% and a 7 Lindhagen, E., Nygren, P., and Larsson, R. (2008) The fluorometric microculture cytotoxicity assay. Nat.
# [3] = Bacterial membrane permeabilization assay (carboxyfluorescein leakage from liposomes); assay type: biochemical; settings: large unilamellar liposomes from E. coli phospholipid extract, 45 min, 37 °C
smiles,measurement,setting,value
"C/C=C1/NC(=O)[C@H](CCN)NC(=O)[C@H](CC(C)C)NC(=O)[C@H](CN)NC(=O)C[C@@H](CCCCCCC)OC(=O)[C@H](CC(=O)O)NC(=O)[C@H](C(C)(C)O)NC(=O)[C@@H](Cc2ccccc2)NC(=O)[C@H](CN)NC(=O)[C@H]([C@@H](C)O)NC1=O [Compound 2, isopedopeptin B] ([Dap]L[Dab][X1]T[Dap][dF][Val(3-OH)]D; linker N-C via X2)",MIC,"A. baumannii; ATCC19606, WT, read-out: MIC A. baumannii ATCC19606",8 µg/mL
same,MIC,"A. baumannii; Col (colistin-resistant), read-out: MIC A. baumannii EN0287",8 µg/mL
same,MIC,"A. baumannii; MDR clinical, read-out: MIC A. baumannii BM4454",8 µg/mL
same,MIC,"A. baumannii; read-out: MIC A. baumannii BM4652, efflux-defective derivative of BM4454",8 µg/mL
same,MIC,"A. baumannii; read-out: MIC colistin-resistant strains of A. baumannii, strains not named",≥ 8 µg/mL
same,MIC,"E. coli; ATCC25922, WT, read-out: MIC E. coli ATCC25922",8 µg/mL
same,MIC,"E. coli; ATCC25922, read-out: MIC E. coli CH3130, ΔtolC mutant isogenic to ATCC25922",8 µg/mL
same,MIC,"E. coli; ESC, CIP, GEN, SXT, read-out: MIC E. coli CH3491",8 µg/mL
same,MIC,"E. coli; read-out: MIC E. coli D22, lpxC mutant, hypersensitive",4 µg/mL
same,MIC,"K. pneumoniae; ATCC13833, WT, read-out: MIC K. pneumoniae ATCC13833",4 µg/mL
same,MIC,"K. pneumoniae; Col, read-out: MIC K. pneumoniae CH9625",4 µg/mL
same,MIC,"K. pneumoniae; Col, read-out: MIC K. pneumoniae CH9626",4 µg/mL
same,MIC,"K. pneumoniae; ESC, CARBA, CIP, GEN, AMK, SXT, TET, clinical multidrug-resistant, read-out: MIC K. pneumoniae CH3498",8 µg/mL
same,MIC,"K. pneumoniae; WT, read-out: MIC K. pneumoniae 1161486",8 µg/mL
same,MIC,"K. pneumoniae; read-out: MIC K. pneumoniae 1161486a, ΔtolC mutant isogenic to 1161486",8 µg/mL
same,MIC,"K. pneumoniae; read-out: MIC colistin-resistant strains of K. pneumoniae, strains not named",≥ 4 µg/mL
same,MIC,"P. aeruginosa [1]; PAO1, read-out: MIC P. aeruginosa PAO750",32 µg/mL
same,MIC,"P. aeruginosa [1]; PAO1, WT, read-out: MIC P. aeruginosa PAO1",32 µg/mL
same,MIC,"P. aeruginosa [2]; ATCC27853, WT, read-out: MIC P. aeruginosa ATCC27853",4 µg/mL
same,MIC,"P. aeruginosa [2]; CARBA, read-out: MIC P. aeruginosa PS826",4 µg/mL
same,MIC,"P. aeruginosa [2]; CARBA, read-out: MIC P. aeruginosa PS992",4 µg/mL
same,MIC carbapenem-resistant P. aeruginosa,"P. aeruginosa [2]; summary in text over strains, strains not named",≥ 4 µg/mL
"C/C=C1/NC(=O)[C@H](CCN)NC(=O)[C@H](CC(C)C)NC(=O)[C@H](CN)NC(=O)C[C@@H](CCCCCCCC(C)C)OC(=O)[C@H](CC(=O)O)NC(=O)[C@H](C(C)(C)O)NC(=O)[C@@H](Cc2ccccc2)NC(=O)[C@H](CN)NC(=O)[C@H]([C@@H](C)O)NC1=O [Compound 6, Isopedopeptin F] ([Dap]L[Dab][X1]T[Dap][dF][Val(3-OH)]D; linker N-C via X5)",EC50,[3],2000 nM
